Consider 54 compounds from the SangsterLogP compilation.

Consider `CC(=O)Nc1cccnc1`, for which the logP (as a rule, the decadic logarithm of the partition coefficient of the neutral form, usually between octanol and water) turned out to be 0.41.

Consider `Clc1cnc2ccccc2n1`, for which the logP was 2.23. With `N#Cc1ccccn1`, the logP came out at 0.5. As for `Cc1ccc([N+](=O)[O-])cn1`, the logP amounted to 0.99. Next, `Clc1ccc2ccccc2n1`: 2.71. `Cc1cc(C#N)ccn1` yielded a lipophilicity (logP) of 0.81.

Consider `N#Cc1cccnc1`, for which the logP is 0.36. Next, `CC(=O)c1ccnc2cc(Cl)ccc12`: 2.62.

As to `CCOc1ccc2nccnc2c1`, the logP was found to be 2.22. Regarding `O=[N+]([O-])c1cnc2ccccc2c1`, the logP stood at 1.97. In the case of `CC(=O)Nc1ccc2ncccc2c1` it was 1.55. Consider `Nc1cnc2ccccc2c1`, for which the logP was found to be 1.63. This logP and that of the compound before are within 0.2 log units of each other. Next, `O=S(=O)(c1ccccc1)c1ccc2ncccc2c1`: 2.57; `CN(C)c1ccc2cccnc2c1`: 2.71. In the case of `CCOC(=O)Oc1cccc2cccnc12` it was 1.73; in that of `Clc1ccc2nccnc2c1`, 2.1; in that of `CCC(=O)Nc1ccnc2cc(Cl)ccc12`, 2.73. In the case of `O=[N+]([O-])c1ccccn1` it was 0.48; in that of `Cc1ccc2c(c1)N(O)C=CN2O`, -0.35; in that of `CSc1cnc2ccccc2n1`, 2.79. In turn, `COc1ccc2cccnc2c1` displayed a logP of 2.37.

In the case of `N#Cc1ccc2nccnc2c1`, the logP amounted to 1.01.

Regarding `CC(=O)Nc1cccc2ncccc12`, the logP was 0.71. In the case of `N#Cc1ccncc1` it was 0.46. Next, `Nc1cnc2ccccc2n1`: 1.5.

Compound `COc1cnc2ccccc2n1` showed a lipophilicity (logP) of 2.31. `Cc1cccc2nccnc12` showed a logP of 2.04. With `Cc1cnccn1`, the logP turned out to be 0.23. The compound `Clc1cccnc1` showed a logP of 1.33. Next, `Cc1cnc(C)cn1`: 0.63; `CC(=O)c1ccc2ccccc2n1`: 2.54. Next, `Nc1cccc2nccnc12`: 1.29; `O=[N+]([O-])c1ccnc2ccccc12`: 2.06.

In turn, `O=COc1ccccc1` came in with a logP of 1.26.

The compound `Nc1ccc2nccnc2c1` had a logP of 0.9. Next, `Brc1ccc2cccnc2c1`: 2.92; `CC(=O)c1ccccn1`: 0.83. Next, `O=[N+]([O-])c1cccnc1`: 0.6; `CCOC(=O)c1cccc2cccnc12`: 1.83; `N#Cc1ccnc2ccccc12`: 1.98. Regarding `CC(=O)c1cccnc1`, the logP came out at 0.43. Consider `CN(C)c1ccncc1`, for which the logP is 1.34. In turn, `COC(=O)c1ccncc1` came in with a logP of 0.87. Next, `Nc1cnccn1`: -0.07. Next, `COc1ccncc1`: 1.

Compound `Nc1ccnc2ccccc12` displayed a lipophilicity (logP) of 1.63. Take `CS(=O)(=O)c1cnc2ccccc2n1`: the lipophilicity (logP) was found to be 0.79.

`Cc1cc2nccnc2cc1C` displayed a logP of 2.29. Next, `Cc1cccc2c1ncc[n+]2[O-]`: 1.2; `Cc1cccc(C#N)n1`: 0.84. Next, `CN(C)c1cccc2cccnc12`: 2.73. Next, `Cc1cnc2ccccc2n1`: 1.61; `CC(=O)Nc1cnc2ccccc2c1`: 1.92.

Compound `Clc1cccc2nccnc12` returned a logP of 1.75.
